Experimental data: US20060111368A1, “Phosphodiesterase inhibitor” (Kyowa Hakko Kogyo Co., Ltd., priority 2002, published 2006)
pIC50: −log10 of the molar value. Where two headings read alike, the source gives them in different places.

Assays:
[1] = target: T1, PDE10A (Homo sapiens, UniProt Q9Y233); experiment: Activity of inhibiting PDE10A activity ([3H]cAMP decomposition inhibiting test); format: biochemical; conditions: for inhibition at 1 µM: read-out: [3H] cAMP decomposition inhibition rate (%); for pIC50: read-out: IC50 (concentration at which to inhibit [3H]cAMP decomposition by 50%)
T1 construct: made in house; host or cells: Sf9 insect cells (baculovirus, pVL1393)
T1 sequence (Q9Y233 340-1055): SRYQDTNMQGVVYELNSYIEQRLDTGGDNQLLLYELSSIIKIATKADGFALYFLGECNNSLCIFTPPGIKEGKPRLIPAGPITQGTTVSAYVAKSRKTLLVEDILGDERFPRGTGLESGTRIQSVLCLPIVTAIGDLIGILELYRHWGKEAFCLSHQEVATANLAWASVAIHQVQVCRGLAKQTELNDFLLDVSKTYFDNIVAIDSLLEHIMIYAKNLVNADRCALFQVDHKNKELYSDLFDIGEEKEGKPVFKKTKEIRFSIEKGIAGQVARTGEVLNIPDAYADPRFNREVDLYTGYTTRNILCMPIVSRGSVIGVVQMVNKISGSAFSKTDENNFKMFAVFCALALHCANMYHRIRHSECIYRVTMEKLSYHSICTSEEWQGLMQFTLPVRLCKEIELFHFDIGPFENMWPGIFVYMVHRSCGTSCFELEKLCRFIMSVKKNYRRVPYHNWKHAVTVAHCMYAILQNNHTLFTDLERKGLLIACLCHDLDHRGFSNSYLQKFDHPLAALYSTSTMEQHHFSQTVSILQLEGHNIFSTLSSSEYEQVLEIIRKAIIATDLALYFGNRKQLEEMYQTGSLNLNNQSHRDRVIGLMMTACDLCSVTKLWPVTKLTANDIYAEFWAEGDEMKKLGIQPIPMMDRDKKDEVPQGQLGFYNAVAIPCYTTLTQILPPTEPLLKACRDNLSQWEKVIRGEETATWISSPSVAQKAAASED
Procedure: Activity of Inhibiting PDE10A Activity (^3H]cAMP Decomposition Inhibiting Test)
PCR was performed using DNAs having base sequences described in SEQ ID NO. 1 and SEQ ID NO. 2 as primers and human kidney cDNA as a template to prepare a plasmid containing amplified fragments. The plasmid was cleaved with restriction endonucleases Pst I and Xba I to obtain a Pst I-Xba I fragment of 0.7 kb.
Meanwhile, Est clone (Cosmo Bio, Tokyo) of GenBank, ACCESSION WO 4835 was cleaved with restriction endonucleases Kpn I and Pst I to obtain a Kpn I-Pst I fragment of 1.5 kb.
The resulting Pst I-Xba I fragment of 0.7 kb and Kpn I-Pst I fragment of 1.5 kb were subcloned in a Kpn I-Xba I site of pBluescript II KS(−) (STRATAGENE, La Jolla, Calif., USA),to construct a plasmid having a cDNA fragment completely including a catalyst region of PDE10A. Subsequently, the plasmid was cleaved with restriction endonucleases Kpn I and Not I to obtain a Kpn I-Not I fragment of 2.2 kb.
The resulting Kpn I-Not I fragment of 2.2 kb and a linker having a BamH I-Kpn I cleavage surface prepared by synthetic DNA having base sequences described in SEQ ID NOS. 3 and 4 were subcloned in a BamH I-Not I site of pVL1393 (PharMingen, San Diego, Calif., USA) to obtain a plasmid for preparation of Baculovirus. The plasmid contains a DNA encoding a peptide in which methionine, FLAG tag and a peptide having a 64th to 779th amino acid sequence of PDE10A [GenBank, ACCESSION NP 006652: Gene, vol. 234, p. 109 (1999), J. Biol. Chem., vol. 274, p. 18438 (1999)] are bound in the order.
The above gene recombinational manipulation was performed according to the method described in Molecular Cloning, 2nd edition, Cold Spring Harbor Laboratory Press, New York (1989).
The expression of PDE10A was conducted according to the Baculovirus expression vector system manual (PharMingen) using insect cells. As insect cells, Sf9 cells (Asahi Technoglass, Tokyo) were used. Sf9 cells were infected with a supernatant (co-transfection sup) containing PDE10A expression virus prepared according to the manual, and cultured at 27° C. for 4 days. The cells were recovered, washed with a phosphate-buffered saline (PBS), and then suspended in an extraction solution [20 mmol/L Tris-acetate (pH 7.5), 2 mmol/L MgCl2, 1 mmol/L dithiothreitol, 1 mmol/L ethylenediaminetetraacetic acid (EDTA), 0.25 mol/L sucrose, 250 unit/mL aprotinin, 40 μg/mL phenylmethylsulfonyl fluoride, and 1 μg/mL pepstatin A]. The cells were disrupted in ice with the maximum output under conditions of 5 seconds and five times using an ultrasonic disruption machine (TOMY model UR-200R, TOMY, Tokyo). A soluble fraction was obtained by centrifugation under 10,000 rpm of the fraction at 4° C. for 30 minutes, and the resulting soluble fraction was used for measuring the PDE activity.
The PDE activity was measured according to the method described in Methods Enzymol., vol. 159, p. 457 (1988).
Using [^3H]cAMP as a substrate, an enzyme reaction was conducted in a reaction solution containing 300 μL of 50 mmol/L N,N-bis (2-hydroxyethyl)-2-aminoethanesulfonic acid (pH 7.2), 1 mmol/L MgCl2 and 0.1 mmol/L ethylene glycol-bis (β-aminoethyl ether)-N,N,N′,N′-tetraacetic acid: EGTA). The concentration of the substrate was 0.2 μmol/L. To 95 μL of an enzyme dilute solution were added 5 μL of a test compound (DMSO solution) and 200 μL of a substrate solution. The mixture was incubated at 30° C. for 20 minutes, and then HCl was added to stop the reaction. The reaction product (5′-AMP) was converted to adenosine using 5′-nucleotidase, and separated the unreacted product from the reactant by DEAE-Sephadex A-25 column (Amersham Pharmacia Biotech, Uppsala, Sweden). The elute was moved to scintillation vials, 6 mL of Ultima Gold (Packard Instrument, Meriden, Conn., USA) was added, and the radioactivity was measured for 2 minutes using a liquid scintillation counter (Beckman LS6500, Beckman, Tokyo),. […]

[2] = Test compound concentration 1 μmol/L, substrate [3H]cAMP 0.2 μmol/L

Row | Structure (SMILES) | inhibition at 1 µM [1, 2] [%] | pIC50 ([1]; substrate [3H]cAMP 0.2 μmol/L) | melting point | inhibition at 1 µM [1] [%]
1 | COc1ccccc1-c1ccc(-c2nc3ccc(F)cc3c(C(=O)O)c2C)cc1 [D, 6-Fluoro-2-(2′-methoxybiphenyl-4-yl)-3-methylquinoline-4-carboxylic acid] | 99 | 7.96 | 283 to 295 °C | 
2 | Cc1ccccc1-c1ccc(-c2nc3ccc(F)cc3c(C(=O)O)c2C)cc1 [H, 6-Fluoro-3-methyl-2-(2′-methylbiphenyl-4-yl)quinoline-4-carboxylic acid] | 97 | 7.33 | 260 °C (dec.) | 
3 | Cc1c(-c2ccc(-c3ccccc3CO)cc2)nc2ccc(F)cc2c1C(=O)O [K, 6-Fluoro-2-(2′-hydroxymethylbiphenyl-4-yl)-3-methylquinoline-4-carboxylic acid] | 90 |  | 258 to 260 °C | 
4 | Cc1c(-c2ccc(-c3ccccc3-c3ccccc3)cc2)nc2ccc(F)cc2c1C(N)=O [O, 6-Fluoro-3-methyl-2-([1,1′:2′,1″-terphenyl]-4-yl)quinone-4-carboxamide] |  | 7.48 | 243 to 246 °C | 94

Now from value to compound, other results behind:

Row | inhibition at 1 µM [1, 2] [%] | pIC50 ([1]; substrate [3H]cAMP 0.2 μmol/L) | melting point | Structure (SMILES) | inhibition at 1 µM [1] [%]
5 | 99 | 7.89 | 222 to 224 °C | Cc1c(-c2ccc(-c3ccccc3CNc3ccccc3)cc2)nc2ccc(F)cc2c1C(=O)O [Compound N, 6-Fluoro-3-methyl-2-[(2′-phenylamino)methylbiphenyl-4-yl]quinoline-4-carboxylic acid] | 
6 | 99 | 7.68 | 189 to 190 °C | Cc1c(-c2ccc(-c3ccccc3CN3CCN(c4ccccc4)CC3)cc2)nc2ccc(F)cc2c1C(=O)O [L, 6-Fluoro-3-methyl-2-[21-(4-phenylpiperazin-1-yl)methylbiphenyl-4-yl]quinoline-4-carboxylic acid] | 
7 | 98 | 7.57 | 163 to 165 °C | Cc1c(-c2ccc(-c3ccccc3CN3CCOCC3)cc2)nc2ccc(F)cc2c1C(=O)O [M, 6-Fluoro-3-methyl-2-(2′-morpholinomethylbiphenyl-4-yl)quinoline-4-carboxylic acid] | 
